Laboratory results taken from patent publication US12128028B2, “Heterocyclic sulfonamide derivatives and pharmaceutical uses thereof” (METRION BIOSCIENCES LIMITED, priority 2018, dated 2024).

Each compound was assayed against human Kv1.3 (Homo sapiens (Human), UniProt P22001) (assay: Kv1.3 potency evaluation, automated patch clamp electrophysiology (QPatch HT) in CHO-Kv1.3 cells). Details: whole-cell QPatch HT, % inhibition of charge, step to +30 mV, four concentrations, N≥3 cells, read-out: hKv1.3 IC50.
Sequence of human Kv1.3 (P22001 whole entry): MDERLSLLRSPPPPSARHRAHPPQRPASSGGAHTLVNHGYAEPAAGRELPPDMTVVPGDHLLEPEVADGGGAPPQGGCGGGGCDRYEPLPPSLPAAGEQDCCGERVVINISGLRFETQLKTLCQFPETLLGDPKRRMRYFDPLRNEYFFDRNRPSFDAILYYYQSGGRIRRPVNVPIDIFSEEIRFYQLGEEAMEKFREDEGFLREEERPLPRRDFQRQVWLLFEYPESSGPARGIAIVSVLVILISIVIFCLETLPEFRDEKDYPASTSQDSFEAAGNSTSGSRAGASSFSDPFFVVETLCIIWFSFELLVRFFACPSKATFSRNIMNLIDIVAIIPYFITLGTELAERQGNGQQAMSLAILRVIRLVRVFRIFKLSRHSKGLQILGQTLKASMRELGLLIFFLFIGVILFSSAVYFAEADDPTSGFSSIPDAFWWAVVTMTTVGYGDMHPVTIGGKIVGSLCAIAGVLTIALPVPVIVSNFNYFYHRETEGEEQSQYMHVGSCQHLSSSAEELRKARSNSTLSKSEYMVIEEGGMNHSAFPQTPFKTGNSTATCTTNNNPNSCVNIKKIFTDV
Format: cell-based
Source text: Biological Assays Kv1.3 Potency Evaluation Electrophysiology Recordings
A proprietary Chinese hamster ovary cell line stably expressing exogenous human a-subunits of Kv1.3 (CHO-Kv1.3) channel, validated biophysically and pharmacologically in house, was used to assess the ability of test compounds to block Kv1.3 currents using automated patch clamp electrophysiology. The QPatch HT system (Sophion Bioscience A/S, Denmark) was used with the conventional whole-cell configuration. This system is an automated, chip-based planar patch clamp device allowing for up to 48 parallel independent experiments in one experimental assay run. Cells are added to each well and drawn by suction onto a small aperture to obtain a Gigaohm seal between the cell membrane and treated silicon surface, and whole-cell recordings initiated after access is achieved by suction and/or voltage pulses. The QPatch HT uses static perfusion, whereby a small volume of recording solution or drug is added to a reservoir on the chip and the solution perfuses across the cell through quartz-lined microfluidic channels; this solution is removed by capillary action when the next sample application is made.
CHO-Kv1.3 cells were prepared for experiments by dissociation from T175 cell culture flasks using trypsin-EDTA (0.05%), cells were kept in serum free media in the cell hotel on board the QPatch HT. These cells were sampled, washed and re-suspended in extracellular recording solution by the QPatch HT immediately before application to the recording well site on the chip. Experiments were performed using the following solutions; extracellular solution contained (in mM); 150 NaCl, 10 KCl, 1 MgCl2, 3 CaCl2), 10 Glucose and 10 HEPES (pH 7.4, NaOH) and intracellular solution contained (in mM); 20 KCl, 120 KF, 10 HEPES, 10 EGTA, 5 ATP (pH 7.2, KOH).
The potency (Inhibitory Concentration 50%, IC50) of synthesized compounds against Kv1.3 was determined from concentration-response relationships established by cumulatively applying four escalating concentrations of test compound to an individual cell and a minimum of N≥3 individual cells of data per compound were used to generate the IC50 value.
On achieving the whole-cell configuration; two additions of vehicle (0.1-0.3% DMSO v/v) were applied to each cell in two bolus additions with a two minute recording period between each addition (four minutes total recording time). Following the vehicle period, four concentrations of test sample were applied as two bolus additions per test concentration at two minute intervals, and the effects on current measured during the four minute recording period.
Currents were elicited using a single step voltage protocol. From a holding potential of −80 mV the cell is depolarised to +30 mV (500 ms) resulting in an outward current before finally repolarising the cell by returning to the holding potential. The command voltage was applied at a frequency of 0.067 Hz throughout the duration of the experiment. For each sweep of the voltage protocol membrane current and the passive properties of the individual cells were recorded by QPatch assay software (version 5.2). Cursors were placed to calculate the charge (integral of the current recorded during cursor interval) between 2-490 ms (0.4-99%) of the 500 ms step to +30 mV.
The % inhibition of charge for each test concentration application period was calculated as the reduction in mean charge at the end of each concentration test period relative to the charge value measured at the end of the control (i.e. vehicle) period. Sigmoidal concentration response curves (four parameter logistic curve) were fitted to the % inhibition rom which the IC50 was determined. Curve fits were constrained at 0 and 100%.

Compound	IC50
CN(CCC(F)(F)F)C(=O)[C@@H]1NC(C23CC(N(Cc4ccc(Cl)c(F)c4)S(=O)(=O)c4ccccc4)(C2)C3)=NC1(C)C (mixture of isomers) [Example 3]	61 nM
CC1(C)N=C(C23CC(N(Cc4ccc(Cl)cc4)S(=O)(=O)CC4CC4)(C2)C3)N[C@H]1C(=O)NCCC(F)(F)F (mixture of isomers) [Example 4]	79 nM
CC1(C)N=C(C23CC(N(Cc4ccc(Cl)c(F)c4)S(=O)(=O)c4ccccc4)(C2)C3)N[C@H]1C(=O)NCC1CC1(F)F (mixture of isomers) [Example 11]	28 nM
CC1(C)N=C(C23CC(N(Cc4ccc(Cl)c(F)c4)S(=O)(=O)c4ccccc4)(C2)C3)N[C@H]1C(=O)NCCC(F)(F)F (mixture of isomers) [Example 13]	37 nM
CC1(C)N=C(C23CC(N(Cc4ccc(Cl)c(F)c4)S(=O)(=O)c4ccccc4)(C2)C3)N[C@H]1C(=O)NCC1CC1(F)F (mixture of isomers) [Example 14]	33 nM
CC(F)(F)CNC(=O)[C@@H]1NC(C23CC(N(Cc4ccc(Cl)c(F)c4)S(=O)(=O)c4ccccc4)(C2)C3)=NC1(C)C (mixture of isomers) [Example 15]	33 nM
CC1(C)N=C(C23CC(N(Cc4cccc(Cl)c4)S(=O)(=O)c4ccccc4)(C2)C3)N[C@H]1C(=O)NCCC(F)(F)F (mixture of isomers) [Example 16]	35 nM
CN(C(=O)[C@@H]1NC(C23CC(N(Cc4ccc(Cl)c(Cl)c4)S(=O)(=O)c4ccccc4)(C2)C3)=NC1(C)C)C12CC(C1)C2 (mixture of isomers) [Example 17]	35 nM
CC1(C)N=C(C23CC(N(Cc4ccc(Cl)c(F)c4)S(=O)(=O)c4ccccc4)(C2)C3)N[C@H]1C(=O)NC[C@H]1CC1(F)F (mixture of isomers) [Example 22]	39 nM
CC1(C)N=C(C23CC(N(Cc4ccc(Cl)c(F)c4)S(=O)(=O)c4ccccc4)(C2)C3)N[C@H]1C(=O)NCC1(C(F)(F)F)CC1 (mixture of isomers) [Example 26]	54 nM
C[C@@H]1CC(F)(F)CN1C(=O)[C@@H]1NC(C23CC(N(Cc4ccc(Cl)c(F)c4)S(=O)(=O)c4ccccc4)(C2)C3)=NC1(C)C (mixture of isomers) [Example 27]	40 nM
CC(C)(F)CNC(=O)[C@@H]1NC(C23CC(N(Cc4ccc(Cl)c(Cl)c4)S(=O)(=O)c4ccccc4)(C2)C3)=NC1(C)C (mixture of isomers) [Example 28]	40 nM
CN(C(=O)[C@@H]1NC(C23CC(N(Cc4ccc(Cl)c(Cl)c4)S(=O)(=O)c4ccccc4)(C2)C3)=NC1(C)C)C1CC(F)(F)C1 (mixture of isomers) [Example 29]	40 nM
CC1(C)N=C(C23CC(N(Cc4ccc(Cl)c(F)c4)S(=O)(=O)c4ccccc4)(C2)C3)N[C@H]1C(=O)N1CCC12CCC2 (mixture of isomers) [Example 30]	41 nM
CC1(C)N=C(C23CC(N(Cc4ccc(Cl)c(F)c4)S(=O)(=O)c4ccccc4)(C2)C3)N[C@H]1C(=O)N1CCCCC1 (mixture of isomers) [Example 31]	42 nM
CCCS(=O)(=O)N(Cc1ccc(Cl)c(Cl)c1)C12CC(C3=NC(C)(C)[C@H](C(=O)NC45CC(C4)C5)N3)(C1)C2 (mixture of isomers) [Example 32]	43 nM
CN(C(=O)[C@@H]1NC(C23CC(N(Cc4ccc(Cl)c(F)c4)S(=O)(=O)c4ccccc4)(C2)C3)=NC1(C)C)C12CC(C1)C2 (mixture of isomers) [Example 33]	43 nM
C[C@@H](NC(=O)[C@@H]1NC(C23CC(N(Cc4ccc(Cl)c(F)c4)S(=O)(=O)c4ccccc4)(C2)C3)=NC1(C)C)C(F)(F)F (mixture of isomers) [Example 34]	47 nM
CC(C)(F)CNC(=O)[C@@H]1NC(C23CC(N(Cc4ccc(Cl)c(F)c4)S(=O)(=O)c4ccccc4)(C2)C3)=NC1(C)C (mixture of isomers) [Example 35]	44 nM
CC1(C)N=C(C23CC(N(Cc4ccc(Cl)c(F)c4)S(=O)(=O)c4ccccc4)(C2)C3)N[C@H]1C(=O)NCC1(F)CCC1 (mixture of isomers) [Example 36]	45 nM
CC1(C)N=C(C23CC(N(Cc4ccc(Cl)cc4)S(=O)(=O)c4ccccc4)(C2)C3)N[C@H]1C(=O)NCC1CC(F)(F)C1 (mixture of isomers) [Example 37]	45 nM
CN(C(=O)[C@@H]1NC(C23CC(N(Cc4ccc(Cl)c(F)c4)S(=O)(=O)c4ccccc4)(C2)C3)=NC1(C)C)C1CC(C(F)F)C1 (mixture of isomers) [Example 38]	45 nM
CC1(C)N=C(C23CC(N(Cc4ccc(Cl)cc4)S(=O)(=O)c4ccccc4)(C2)C3)N[C@H]1C(=O)NC[C@H]1CC1(F)F (mixture of isomers) [Example 39]	45 nM

Further lines, results first:

IC50	Compound
30 nM	CC1(C)N=C(C23CC(N(Cc4ccc(Cl)cc4)S(=O)(=O)c4ccccc4)(C2)C3)N[C@H]1C(=O)NCCC(F)(F)F (mixture of isomers) [Example 2]
20 nM	CC1(C)N=C(C23CC(N(Cc4ccc(Cl)c(F)c4)S(=O)(=O)c4ccccc4)(C2)C3)N[C@H]1C(=O)NCC1(F)CC1 (mixture of isomers) [Example 6]
26 nM	CCCS(=O)(=O)N(Cc1ccc(Cl)cc1)C12CC(C3=NC(C)(C)[C@H](C(=O)NCCC(F)(F)F)N3)(C1)C2 (mixture of isomers) [Example 7]
27 nM	CC1(C)N=C(C23CC(N(Cc4ccc(Cl)cc4)S(=O)(=O)c4ccoc4)(C2)C3)N[C@H]1C(=O)NCCC(F)(F)F (mixture of isomers) [Example 8]
28 nM	CC1(C)N=C(C23CC(N(Cc4ccc(Cl)cc4F)S(=O)(=O)c4ccccc4)(C2)C3)N[C@H]1C(=O)NCCC(F)(F)F (mixture of isomers) [Example 9]
28 nM	CCCCS(=O)(=O)N(Cc1ccc(Cl)cc1)C12CC(C3=NC(C)(C)[C@H](C(=O)NCCC(F)(F)F)N3)(C1)C2 (mixture of isomers) [Example 10]
30 nM	CC1(C)N=C(C23CC(N(Cc4ccc(Cl)cc4)S(=O)(=O)c4ccccc4)(C2)C3)N[C@H]1C(=O)NC12CC(C1)C2 (mixture of isomers) [Example 12]
36 nM	CC1(C)N=C(C23CC(N(Cc4ccc(Cl)cc4)S(=O)(=O)c4cccs4)(C2)C3)N[C@H]1C(=O)NCCC(F)(F)F (mixture of isomers) [Example 18]
37 nM	CCCNC(=O)[C@@H]1NC(C23CC(N(Cc4ccc(Cl)c(F)c4)S(=O)(=O)c4ccccc4)(C2)C3)=NC1(C)C (mixture of isomers) [Example 19]
37 nM	CC1(C)N=C(C23CC(N(Cc4ccc(Cl)c(F)c4)S(=O)(=O)c4ccccc4)(C2)C3)N[C@H]1C(=O)NCCC1CC1 (mixture of isomers) [Example 20]
38 nM	CC1(NC(=O)[C@@H]2NC(C34CC(N(Cc5ccc(Cl)c(F)c5)S(=O)(=O)c5ccccc5)(C3)C4)=NC2(C)C)CCC1 (mixture of isomers) [Example 21]
40 nM	CC1(C)N=C(C23CC(N(Cc4ccc(F)cc4)S(=O)(=O)c4ccccc4)(C2)C3)N[C@H]1C(=O)NCCC(F)(F)F (mixture of isomers) [Example 23]
40 nM	CC1(C)N=C(C23CC(N(Cc4ccc(F)c(F)c4)S(=O)(=O)c4ccccc4)(C2)C3)N[C@H]1C(=O)NCCC(F)(F)F (mixture of isomers) [Example 24]
40 nM	CC1(C)N=C(C23CC(N(Cc4ccccc4)S(=O)(=O)c4ccccc4)(C2)C3)N[C@H]1C(=O)NCCC(F)(F)F (mixture of isomers) [Example 25]
